Counter-ions that a name gives are not always drawn.
Columns and labels:
mice = assay: Drug Effects on Phenylbenzoquinone-induced Writhing in Mice; format: in vivo, Male Swiss albino mice; settings: p.o., PBQ i.p. 60 minutes after dosing, writhes in 15 min
Experimental: A further test used to determine the utility of the compounds of the present invention is designated: Drug Effects on Phenylbenzoquinone-induced Writhing in Mice
The objective of this test is to determine the ability of test drugs to inhibit the nociceptive (pain) response of mice injected with a chemical irritant. This test is a primary screen for both peripheral and centrally acting analgesic drugs.
Male Swiss albino mice (15-25 g). The animals are fasted for 18 hours prior to use but have free access to water.
Drug Preparation and Administration:
Drugs are dissolved or suspended according to their solubility in 0.5% Tween 80 in distilled water. They are administered by gastric gavage in a volume of 5 mL/kg. […]
A modification of the method of Siegmund et al, Proc. Soc. Exp. Biol. Med., 95, 729-731 (1957) is used. Groups of 5 mice are dosed with the test compound or vehicle control. […] The number of writhing or abdominal squirming movements made by each mouse during the following 15 min. period is counted. The experiment is repeated with another group of 5 mice and the mean numbr of writhes per mouse for a group of 10 mice is calculated.
Drug treated and vehicle-treated control groups are compared and the percentage protection conferred by the drug is calculated: [formula] where c=mean number of writhes in the control group where t=mean number of writhes in the test drug group

rats = assay: Preventative Adjuvant Edema; format: in vivo, Male Sprague Dawley rats; settings: p.o., dosed days 0, 1 and 2, edema volume day 3
Experimental: This test is a primary screen for anti-inflammatory drugs.
Male Sprague Dawley rats (180-200 g) are used. The animals have free access to water but food is withdrawn 18 hours before testing.
Drug Preparations and Adminstration:
Freund's complete adjuvant is prepared by suspending 5 mg of killed and dried Mycobacterium butyricum (Difco) in 1 mL mineral oil. The test compounds are dissolved, or suspended in 0.5% Tween 80 in distilled water according to their solubility. […]
The method is essentially that described by Wax et al, J. Pharmacol. Exp. Ther., 192, 166-171 (1975). Groups of rats are injected intradermally in the left hind paw with 0.1 mL of Freund's complete adjuvant. The test compound or vehicle is administered immediately before the adjuvant, 24 hours and 48 hours after the adjuvant (days 0, 1 and 2). The injected hind paw volume is measured before the injection of adjuvant and 24 hrs. after the last drug administration (day 3) by means of a plethysmometer (Buxco Electronics Inc.). The difference between the hind paw volume on day 0 and day 3 represents the edema volume. […]
The mean edema volume (expressed as mL±SEM) is calculated for each group and the percentage protection conferred by the drug is calculated: [formula] where c is the mean edema volume for the vehicle-treated (0.5% Tween 80 in distilled water) controls and t is the mean edema volume for the drug treated group.

Row | Compound | Phenylquinone Writhing in Mice, percent inhibition (mice; 10 mg/kg) [%] | Preventative Adjuvant Edema, percent inhibition (rats; 10 mg/kg) [%] | Phenylquinone Writhing in Mice, percent inhibition (mice; 200 mg/kg) [%] | Preventative Adjuvant Edema, percent inhibition (rats; 25 mg/kg) [%]
1 | C/C=C\c1c(F)ccc2c3c([nH]c12)C(CC)(CC(=O)O)OCC3 (stereo not shown) [Example 1, (Z)-1-Ethyl-7-fluoro-1,3,4,9-tetrahydro-8-(1-propenyl)pyrano[3,4-b]indole-1-acetic Acid, 1,2-Ethanediamine Salt] | 32 | 69 |  | 
2 | C/C=C\c1cccc2c3c([nH]c12)C(CC)(CC(=O)O)OCC3 (stereo not shown) [Example 2, (Z)-1-Ethyl-8-(1-propenyl)-1,3,4,9-tetrahydropyrano[3,4-b]indole-1-acetic Acid] |  |  | 11 | 73

Source: US4855445A, “Substituted-8-alkenyl-1,3,4,9-tetrahydropyrano[3,4-b]indole-1-acetic acids” (American Home Products Corporation, priority 1987, dated 1989)
